Results: patent US8741897B2, “Glucocorticoid mimetics, methods of making them, pharmaceutical compositions and uses thereof” (Boehringer Ingelheim Pharmaceuticals Inc., priority 2003, dated 2014)

System: glucocorticoid receptor function
Test: one or more of the above assays (GR binding and glucocorticoid receptor cell assays: aromatase, IL-6, TAT, MMTV-Luc, IL-8, ICAM-Luc)
Format: cell-based
Conditions: assay not specified per compound

| SMILES | activity as agonists of the glucocorticoid receptor function in one or more of the above assays |
| --- | --- |
| COc1ccc(F)cc1C(C)(C)CC(O)(Cc1cc2cnccc2[nH]1)C(C)(C)C (centres unmarked) [5-(5-Fluoro-2-methoxyphenyl)-2,2,5-trimethyl-3-(1H-pyrrolo[3,2-c]pyridin-2-ylmethyl)hexan-3-ol] | agonists |
| CC(C)(CC(O)(Cc1cc2cc(N3CCOCC3)ncc2[nH]1)C(F)(F)F)c1cccc(CN2CCOCC2)c1 (centres unmarked) [1,1,1-Trifluoro-4-methyl-4-(3-morpholin-4-ylmethylphenyl)-2-(5-morpholin-4-yl-1H-pyrrolo[2,3-c]pyridin-2-ylmethyl)pentan-2-ol] | potent agonists |
| CC(C)(CC(O)(Cc1cc2nc(-c3ccccc3)ncc2[nH]1)C(F)(F)F)c1cccc(F)c1 (centres unmarked) [1,1,1-Trifluoro-4-(3-fluorophenyl)-4-methyl-2-(2-phenyl-5H-pyrrolo[3,2-d]pyrimidin-6-ylmethyl)pentan-2-ol] | potent agonists |
| Cc1cncc2[nH]c(CC(O)(CC(C)(C)c3cccc(F)c3)C(F)(F)F)cc12 (centres unmarked) [1,1,1-Trifluoro-4-(3-fluorophenyl)-4-methyl-2-(4-methyl-1H-pyrrolo[2,3-c]pyridin-2-ylmethyl)pentan-2-ol] | potent agonists |
| COc1ccc(F)cc1C(C)(C)CC(O)(Cc1cc2cc(N3CCOCC3)ncc2[nH]1)C(F)(F)F (centres unmarked) [1,1,1-Trifluoro-4-(5-fluoro-2-methoxyphenyl)-4-methyl-2-(5-morpholin-4-yl-1H-pyrrolo[2,3-c]pyridin-2-ylmethyl)pentan-2-ol] | potent agonists |
| COc1ccc2[nH]c(CC(O)(CC(C)(C)c3cc(Cl)cc4c3OCC4)C(F)(F)F)cc2n1 (centres unmarked) [4-(5-Chloro-2,3-dihydrobenzofuran-7-yl)-1,1,1-trifluoro-2-(5-methoxy-1H-pyrrolo[3,2-b]pyridin-2-ylmethyl)-4-methylpentan-2-ol] | potent agonists |
| Cc1ccc(F)cc1C(C)(C)CC(O)(Cc1cc2cnccc2[nH]1)C(C)C (centres unmarked) [5-(5-Fluoro-2-methylphenyl)-2,5-dimethyl-3-(1H-pyrrolo[3,2-c]pyridin-2-ylmethyl)hexan-3-ol] | agonists |
| CC(C)C(O)(Cc1cc2ccncc2[nH]1)CC(C)(C)c1cc(Cl)cc2c1OCC2 (centres unmarked) [5-(5-Chloro-2,3-dihydrobenzofuran-7-yl)-2,5-dimethyl-3-(1H-pyrrolo[2,3-c]pyridin-2-ylmethyl)hexan-3-ol] | agonists |
| CC(C)(CC(O)(Cc1cc2nnccc2[nH]1)C(F)(F)F)c1cc(F)ccc1O (centres unmarked) [4-Fluoro-2-[4,4,4-trifluoro-3-hydroxy-1,1-dimethyl-3-(5H-pyrrolo[3,2-c]pyridazin-6-ylmethyl)butyl]phenol] | potent agonists |
| CC(C)(CC(O)(Cc1cc2cc(N3CCOCC3)ncc2[nH]1)C(F)(F)F)c1cccc(-c2cncnc2)c1 (centres unmarked) [1,1,1-Trifluoro-4-methyl-2-(5-morpholin-4-yl-1H-pyrrolo[2,3-c]pyridin-2-ylmethyl)-4-(3-pyrimidin-5-ylphenyl)pentan-2-ol] | potent agonists |
| COc1ccc(Br)cc1C(C)(C)CC(O)(Cc1cc2cc(N3CCCCC3)ncc2[nH]1)C(F)(F)F (centres unmarked) [4-(5-Bromo-2-methoxyphenyl)-1,1,1-trifluoro-4-methyl-2-(5-piperidin-1-yl-1H-pyrrolo[2,3-c]pyridin-2-ylmethyl)pentan-2-ol] | potent agonists |
| CC(C)(CC(O)(Cc1cc2cnccc2[nH]1)C1CC1)c1cc(Cl)cc2c1OCC2 (centres unmarked) [4-(5-Chloro-2,3-dihydrobenzofuran-7-yl)-2-cyclopropyl-4-methyl-1-(1H-pyrrolo[3,2-c]pyridin-2-yl)pentan-2-ol] | agonists |
| Cc1nccc2[nH]c(CC(O)(CC(C)(C)c3cc(-c4cccnc4)ccc3O)C(F)(F)F)cc12 (centres unmarked) [4-Pyridin-3-yl-2-[4,4,4-trifluoro-3-hydroxy-1,1-dimethyl-3-(4-methyl-1H-pyrrolo[3,2-c]pyridin-2-ylmethyl)butyl]phenol] | potent agonists |
| CC(C)(CC(O)(Cn1ccc2c1CCCC2=O)C(F)(F)F)c1cc(-c2cccnc2)ccc1O (centres unmarked) [1-[2-Hydroxy-4-(2-hydroxy-5-pyridin-3-ylphenyl)-4-methyl-2-trifluoromethylpentyl]-1,5,6,7-tetrahydroindol-4-one] | agonists |
| CC(C)(CC(O)(Cc1cc2ccncc2[nH]1)C1CC1)c1cc(Cl)cc2c1OCC2 (centres unmarked) [4-(5-Chloro-2,3-dihydrobenzofuran-7-yl)-2-cyclopropyl-4-methyl-1-(1H-pyrrolo[2,3-c]pyridin-2-yl)pentan-2-ol] | agonists |
| COc1ccc(F)cc1C(C)(C)CC(O)(Cc1cc2ccncc2[nH]1)C1(F)CC1 (centres unmarked) [2-(1-Fluorocyclopropyl)-4-(5-fluoro-2-methoxyphenyl)-4-methyl-1-(1H-pyrrolo[2,3-c]pyridin-2-yl)pentan-2-ol] | agonists |
| CC(C)(CC(O)(Cc1cc2cc(-c3ccccn3)ccc2[nH]1)C(F)(F)F)c1cc(Cl)cc2c1OCC2 (centres unmarked) [4-(5-Chloro-2,3-dihydrobenzofuran-7-yl)-1,1,1-trifluoro-4-methyl-2-(5-pyridin-2-yl-1H-indol-2-ylmethyl)pentan-2-ol] | potent agonists |
| CC(C)(CC(O)(Cc1cc2cnccc2[nH]1)C(F)(F)F)c1cccc(-c2cccnc2)c1 (centres unmarked) [1,1,1-Trifluoro-4-methyl-4-(3-pyridin-3-ylphenyl)-2-(1H-pyrrolo[3,2-c]pyridin-2-ylmethyl)pentan-2-ol] | potent agonists |
| COc1ccc(-c2ccccc2C#N)cc1C(C)(C)CC(O)(Cc1cc2cc(N3CCOCC3)ncc2[nH]1)C(F)(F)F (centres unmarked) [4′-Methoxy-3′-[4,4,4-trifluoro-3-hydroxy-1,1-dimethyl-3-(5-morpholin-4-yl-1 H-pyrrolo[2,3-c]pyridin-2-ylmethyl)butyl]biphenyl-2-carbonitrile] | potent agonists |
| Cc1ccc(F)cc1C(C)(C)CC(O)(Cc1cc2nnccc2[nH]1)C(F)(F)F (centres unmarked) [1,1,1-Trifluoro-4-(5-fluoro-2-methylphenyl)4-methyl-2-(5H-pyrrolo[3,2-c]pyridazin-6-ylmethyl)pentan-2-ol] | potent agonists |
| COc1ccc(F)cc1C(C)(C)CC(O)(Cc1cc2ccncc2[nH]1)C(C)C (centres unmarked) [5-(5-Fluoro-2-methoxyphenyl)-2,5-dimethyl-3-(1H-pyrrolo[2,3-c]pyridin-2-ylmethyl)hexan-3-ol] | agonists |
| CC(C)(CC(O)(Cc1cc2cc(-c3ccccc3)nnc2[nH]1)C(F)(F)F)c1cccc(F)c1 (centres unmarked) [1,1,1-Trifluoro-4-(3-fluorophenyl)-4-methyl-2-(3-phenyl-7H-pyrrolo[2,3-c]pyridazin-6-ylmethyl)pentan-2-ol] | potent agonists |
| Cc1ccc(F)cc1C(C)(C)CC(O)(Cc1cc2nc(CN3CCOCC3)ccc2[nH]1)C(F)(F)F (centres unmarked) [1,1,1-Trifluoro-4-(5-fluoro-2-methylphenyl)-4-methyl-2-(5-morpholin-4-ylmethyl-1H-pyrrolo[3,2-b]pyridin-2-ylmethyl)pentan-2-ol] | potent agonists |
| CN1C=CC2=CC(CC(O)(CC(C)(C)c3cc(Cl)cc4c3OCC4)C(F)(F)F)NC2=C1 (centres unmarked) [4-(5-Chloro-2,3-dihydrobenzofuran-7-yl)-1,1,1-trifluoro-4-methyl-2-(6-methyl-1H-pyrrolo[2,3-c]pyridin-2-ylmethyl)pentan-2-ol] | potent agonists |
| Cc1c(CC(O)(CC(C)(C)c2cc(Cl)cc3c2OCC3)C(C)C)[nH]c2cnccc12 (centres unmarked) [5-(5-Chloro-2,3-dihydrobenzofuran-7-yl)-2,5-dimethyl-3-(3-methyl-1H-pyrrolo[2,3-c]pyridin-2-ylmethyl)hexan-3-ol] | agonists |
| COc1ccc(-c2cncnc2)cc1C(C)(C)CC(O)(Cc1cc2cc(OC(C)C)ncc2[nH]1)C(F)(F)F (centres unmarked) [1,1,1-Trifluoro-2-(5-isopropoxy-1H-pyrrolo[2,3-c]pyridin-2-ylmethyl)-4-(2-methoxy-5-pyrimidin-5-ylphenyl)-4-methylpentan-2-ol] | potent agonists |
| CC(C)(CC(O)(Cc1cc2cc(N3CCOCC3)ncc2[nH]1)C(F)(F)F)c1ccccc1 (centres unmarked) [1,1,1-Trifluoro-4-methyl-2-(5-morpholin-4-yl-1H-pyrrolo[2,3-c]pyridin-2-ylmethyl)-4-phenylpentan-2-ol] | potent agonists |
| COc1ccc(-c2ccsc2)cc1C(C)(C)CC(O)(Cc1cc2c(C)nccc2[nH]1)C(F)(F)F (centres unmarked) [1,1,1-Trifluoro-4-(2-methoxy-5-thiophen-3-ylphenyl)-4-methyl-2-(4-methyl-1H-pyrrolo[3,2-c]pyridin-2-ylmethyl)pentan-2-ol] | potent agonists |
| COc1ccc(Br)cc1C(C)(C)CC(O)(Cc1cc2cc(Cl)ncc2[nH]1)C(F)(F)F (centres unmarked) [4-(5-Bromo-2-methoxyphenyl)-2-(5-chloro-1H-pyrrolo[2,3-c]pyridin-2-ylmethyl)-1,1,1-trifluoro-4-methylpentan-2-ol] | potent agonists |
